{
  "source": "patent US11993579B1",
  "about": "“3-(1-(3-(dimethylamino)propyl)-4,5-diphenyl-1h-imidazol-2-yl)pyridin-4-ol as an anti-microbial compound” (KING FAISAL UNIVERSITY, priority 2023, dated 2024)",
  "key": {"St. Aereus": {"test_system": "St. Aereus", "experiment": "Anti-microbial activity by agar dilution, St. Aereus", "assay_type": "cell-based", "settings": "after 10, 20, 40, and 60 min at all dilutions 1:100, 1:200, 1:400, 1:800", "protocol": "(§1) The antibacterial properties of the synthesized compounds were studied by the method of agar dilution. Test solutions of each compound was prepared in a concentration of 1% using dimethylformamide as a solvent. Then the test solutions were diluted in a physiological solution to obtain the final experimental dilutions of 1:100, 1:200, 1:400, and 1:800. The effect of these substances was compared with furacillin in a controllable study. The testing microbes used were gram positive bacteria St. Aereus, gram negative bacteria E. Coli, and Ps. aeruginosa and Candida albicans fungi. The experiments used for this survey were a meat-pentonlu agar (EPA) for cultivation of bacteria and a Saburo environment for fungi. Each experiment used 1 mL of test solution on each plate for 500 min. Next, 2 drops of emulsified test solution with microbes feel were added. All experimental samples were taken from the agar after 10, 40, 60 minutes in the environment on the basis of Patrk planted. Bacteria were cultivated at a temperature of 37° C. for 1 day and the mushroom was kept in a thermostat for […] at a temperature of 28° C. Then results were checked."}, "Candida albicans": {"test_system": "Candida albicans", "experiment": "Anti-microbial activity by agar dilution, Candida albicans", "assay_type": "cell-based", "settings": "after 10, 20, 40, and 60 min at all dilutions 1:100, 1:200, 1:400, 1:800", "protocol": "as §1"}, "Ps. Aeroqonaza": {"test_system": "Ps. Aeroqonaza", "experiment": "Anti-microbial activity by agar dilution, Ps. Aeroqonaza", "assay_type": "cell-based, Ps. aeruginosa", "settings": "after 10, 20, 40, and 60 min at all dilutions 1:100, 1:200, 1:400, 1:800", "protocol": "as §1"}, "E. Coli": {"test_system": "E. Coli", "experiment": "Anti-microbial activity by agar dilution, E. Coli", "assay_type": "cell-based", "settings": "after 10, 20, 40, and 60 min at all dilutions 1:100, 1:200, 1:400, 1:800", "protocol": "as §1"}},
  "data": [
    {"compound": "CN(C)CCCn1c(-c2cnccc2O)nc(-c2ccccc2)c1-c1ccccc1", "note": "[3-(1-(3-(dimethylamino)propyl)-4,5-diphenyl-1H-imidazol-2-yl)pyridin-4-ol]", "values": [
      {"measurement": "inhibition activity, St. Aereus (in words)", "setting": "St. Aereus", "result": "showed the most inhibition activity"},
      {"measurement": "melting point", "result": "137 to 139", "unit": "°C"},
      {"measurement": "inhibition activity, Candida albicans (in words)", "setting": "Candida albicans", "result": "showed the most inhibition activity"},
      {"measurement": "inhibition activity, Ps. aeruginosa (in words)", "setting": "Ps. Aeroqonaza", "result": "showed the most inhibition activity"},
      {"measurement": "inhibition activity, E. Coli (in words)", "setting": "E. Coli", "result": "showed the most inhibition activity"}
    ]}
  ]
}
